What was measured:
[1] = tested on: OX1R; parameters: method as in Sakurai et al., 1998; conditions: competition radioligand binding, ref Sakurai et al., 1998; cited from earlier work
[2] = biological target: T1, human OX1R (Homo sapiens, UniProt O43613); assay: [3H]-BBAC competition binding over time, CHO-hOX1 membranes
T1 construct: expressed in transfected cells; host or cells: CHO; cells from GNF, San Diego
T1 sequence (O43613 1-425): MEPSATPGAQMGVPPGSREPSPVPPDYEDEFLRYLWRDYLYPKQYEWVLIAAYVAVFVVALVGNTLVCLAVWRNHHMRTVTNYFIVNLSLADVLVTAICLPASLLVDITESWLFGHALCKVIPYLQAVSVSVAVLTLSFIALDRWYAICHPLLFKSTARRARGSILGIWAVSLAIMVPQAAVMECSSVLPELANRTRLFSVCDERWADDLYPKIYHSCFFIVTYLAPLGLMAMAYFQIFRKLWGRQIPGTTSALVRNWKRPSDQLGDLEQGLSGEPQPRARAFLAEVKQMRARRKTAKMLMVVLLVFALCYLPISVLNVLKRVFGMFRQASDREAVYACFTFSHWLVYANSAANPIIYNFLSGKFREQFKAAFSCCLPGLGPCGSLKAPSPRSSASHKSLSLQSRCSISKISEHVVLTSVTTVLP
Excerpt: (§1) Chinese Hamster Ovary (CHO) cells stably transfected with the cDNA encoding the human OX1R (CHO-hOX1) or OX2R (CHO-hOX2) were used (kindly provided by T. Cremer and Dr. S. Geisse, NIBR Basel, Switzerland). For measurements of calcium accumulation using FLIPR® (Fluorescent Imaging Plate Reader) assay, CHO or Human Embryonic Kidney (HEK) cells stably expressing mouse, rat or human OX1R or OX2R (kindly provided by Dr. A. Chen, GNF, San Diego, CA, USA) were used. […] Cells were maintained in a humidified incubator at 37°C in 5% CO2. For crude cell membrane preparations, cells were washed and harvested in 10 mM HEPES (pH 7.5), and centrifuged at 4°C for 5 min at 2500 g. The cell pellet was either stored at −80°C or used directly.
(§2) Cell membranes were resuspended in binding assay buffer at 4°C (10 mM HEPES, pH 7.5, 0.5% (w/v) bovine serum albumin (BSA), 5 mM MgCl2, 1 mM CaCl2, and 0.05% Tween 20) and homogenized with a Polytron homogenizer at 50 Hz for 20 s. […] Radioactivity was quantified using a TopCount™ microplate counter (Perkin Elmer).
(§3) All data was analyzed using GraphPad Prism 4.0 (GraphPad, San Diego, USA). The saturation data was fit to a non-linear regression model for saturation binding with consideration for one site binding. […] Competition binding data was fit to a non-linear regression model for competition binding with consideration for variable one site binding with a non-fixed Hill slope.

[3] = biological target: T2, human OX2R (Homo sapiens, UniProt O43614); assay: [3H]-BBAC competition binding over time, CHO-hOX2 membranes
T2 construct: expressed in transfected cells; host or cells: CHO; cells from GNF, San Diego
T2 sequence (O43614 1-444): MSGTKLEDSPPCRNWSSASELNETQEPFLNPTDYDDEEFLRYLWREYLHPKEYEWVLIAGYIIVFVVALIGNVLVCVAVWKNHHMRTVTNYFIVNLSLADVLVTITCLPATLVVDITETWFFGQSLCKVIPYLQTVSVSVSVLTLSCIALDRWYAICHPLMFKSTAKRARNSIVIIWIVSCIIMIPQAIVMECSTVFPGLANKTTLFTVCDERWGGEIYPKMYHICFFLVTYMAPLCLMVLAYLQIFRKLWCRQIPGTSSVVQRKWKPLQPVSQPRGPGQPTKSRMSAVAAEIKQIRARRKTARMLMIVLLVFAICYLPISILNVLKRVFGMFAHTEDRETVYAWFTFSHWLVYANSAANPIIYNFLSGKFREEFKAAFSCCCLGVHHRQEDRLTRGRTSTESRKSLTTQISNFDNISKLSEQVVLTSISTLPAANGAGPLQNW
Excerpt: as §1, §2, §3

[4] = tested on: OX1R; assay: FLIPR calcium assay, OX1R, species not given; format: cell-based; conditions: species not stated
Method: (§4) Determination of orexin A-stimulated calcium accumulation was performed over 2 days using FLIPR® (Fluorescent imaging plate reader from Molecular Devices-FLIPR384). Cells expressing either human, rat or mouse OX1R or OX2R were seeded at 8,000 cells/well in black 384 well clear bottom plates and incubated overnight at 37°C. The following day, medium was discarded and cells loaded with 50 μ l of 1 mM Fluo-4 AM (Invitrogen F14202) in dimethyl sulfoxide in working buffer (Hanks' balanced salt solution, 10 mM HEPES) and incubated for 60 min at 37°C. The loading buffer was removed and cells were washed with 100 μ l working buffer containing […], 0.1% BSA, and 2.5 mM Probenecid (pH 7.4) to remove the excess Fluo-4 AM. Working buffer was added and plates were incubated 10–15 min at room temperature. The assay plate was then transferred to the Molecular Devices-FLIPR384. The baseline calcium signal was recorded for 10 s, then the antagonist of interest was injected (10 μl at 3 times the final concentration) and the calcium signal recorded every second for 1 min, then every 2 s 40 times. Plates were then incubated at room temperature for 30 min, 1, 2, or 4 h.

[5] = tested on: OX2R; assay: FLIPR calcium assay, OX2R, species not given; format: cell-based; conditions: species not stated
Method: as §4

[6] = tested on: sleep; parameters: method as in Fox et al., 2013; conditions: rodent studies; ref Fox et al., 2013; cited from earlier work
[7] = biological target: T1, human OX1R; assay: [3H]-BBAC saturation binding, CHO-hOX1 membranes
Excerpt: as §1, §2
(§5) Data in the figures is representative of the mean ± s.e.m. of a single experiment.
(§6) All data was analyzed using GraphPad Prism 4.0 (GraphPad, San Diego, USA). The saturation data was fit to a non-linear regression model for saturation binding with consideration for one site binding. […]

[8] = biological target: T2, human OX2R; assay: [3H]-BBAC saturation binding, CHO-hOX2 membranes
Excerpt: as §1, §2, §5, §6

orexin B: endogenous orexin peptide
affinity [1]: 250 nM

Cn1c(SCC(=O)N2CCC[C@H]2C(=O)Nc2ccccc2-c2ccccc2)nc2ccccc21 [BBAC, (S)-N-([1,1′-biphenyl]-2-yl)-1-(2-((1-methyl-1H-benzo[d]imidazol-2-yl)thio)acetyl)pyrrolidine-2-carboxamide]
effect of incubation time on competition curves ([2]; competition for 4.6 nM [3H]-BBAC, 15 min to 4 h, human OX1R): no significant difference in IC50 values measured between 30 min and 4 h
time to reach equilibrium ([2]; competition for [3H]-BBAC, OX1R): 15 to 30 min
effect of incubation time on competition curves ([3]; competition for 4.6 nM [3H]-BBAC, 15 min to 4 h, human OX2R): no significant difference in IC50 values measured between 30 min and 4 h
time to reach equilibrium ([3]; competition for [3H]-BBAC, OX2R): 15 to 30 min
effect of incubation time on potency in calcium assay [4]: constant potency values irrespective of the incubation time
effect of incubation time on potency in calcium assay [5]: constant potency values irrespective of the incubation time

C[C@@H]1CC[C@@H](COc2ccc(F)cn2)CN1C(=O)c1cc(F)ccc1-c1ncccn1 [DORA-22]
effect on sleep [6]: promotes sleep with dose-dependent increases in REM sleep

Cn1c(SCC(=O)N2CCC[C@H]2C(=O)Nc2ccccc2-c2ccccc2)nc2ccccc21 [[^3H]-BBAC, (S)-N-([1,1′-biphenyl]-2-yl)-1-(2-((1-methyl-1H-benzo[d]imidazol-2-yl)thio)acetyl)pyrrolidine-2-carboxamide]
incubation time sufficient to reach Bmax and KD values comparable to 4 h [7]: 15 to 30 min
Kd ([8]; CHO-hOX2 membranes, room temperature): ~1 nM
incubation time sufficient to reach Bmax and KD values comparable to 4 h ([8]; OX2R): 15 to 30 min
